Measured values published in patent US8765712B2, “Agent for preventing and treating pityriasis versicolor” (Justus-Liebig-Universitaet Giessen, priority 2009, dated 2014).
Entries after “also recorded” stand apart in the source; their conditions may differ.

What was measured:
M. furfur CBS 1878 = assay: Agar diffusion assay on pigment-inducing medium (p-agar) with TRP as sole nitrogen source; assay type: cell-based, Malassezia furfur
Experimental: The pigment-inducing medium (p-agar) is composed of (for 1 liter medium)
After autoclaving for 30 min at 1 bar, the following is added:
At approx. 50° C., the following heat-labile component is added:
The pH value is approximately pH 5.0.
Each 25 ml of the medium are poured into petri dishes with a diameter of 10 cm. A suspension of M. furfur CBS 1878 (approx. 5 inoculation loops of a strain previously grown on Dixon's agar) is suspended in 1 ml aq. dest., transferred to the p-agar and spread by tilting the plate. […] The pigment composition can be determined after extraction and separation via thin layer chromatography.
For this purpose, M. furfur CBS 1878 is spread on the surface of an agar plate with pigment-inducing medium as describe above, subsequently 4 mm-holes are punched into the agar using a sterile punch. […] The agar diffusion assay is performed with transaminase inhibitor e.g. aminooxyacetate (Sigma) in water, which is adjusted to pH 5 with 1 n NaOH. Concentrations are 0.05 molar top left; 0.1 molar top right; 0.25 molar bottom left, and 0.5 molar bottom right.

pityriasis versicolor = assay: Topical application in humans; assay type: in vivo
Excerpt: Transaminase inhibitors such as aminooxyacetate and/or cycloserine, e.g. D-cycloserine, DL-cycloserine, L-cycloserine or one of the derivatives thereof like e.g. terizidone are suitable for an application in humans. A topical application of 5% in unguentum emulsificans aquosum, applied over several days, is well tolerated without side effects. For prophylactic purposes, a 0.05-5% w/w preparation is used, preferably as shaking mixture/suspension cutanea aquosa, aqueous, oily, or alcoholic suspension, emulsion, paste, cream, ointment, spray, lipophilic gel, hydrophilic gel or plaster, shampoo, bath additive or mud, since the entire body should be treated if possible. For prophylaxis, application is performed daily up to several-day intervals. The same applies to the therapeutic use. D-cycloserine is preferably used in aqueous solution, e.g. 0.2 molar, adjusted to pH 7 with e.g. phosphate buffer.

M. furfur = assay: Agar diffusion assay on complete medium Dixon's agar; conditions: 4 days, concentrations as in FIG. 1 (0.05-0.5 molar)
Experimental: For this purpose, an identical experimental approach as described above is chosen and the fungus is grown on a complete medium Dixon's agar for 4 days. Transaminase inhibitor, e.g. aminooxyacetate solution (e.g. Sigma) or D-cycloserine, DL-cycloserine, L-cycloserine or a derivative thereof such as e.g. terizidone, is added in above mentioned concentrations at the beginning of the experiment.

Structure (SMILES) | suppression of pigment formation in vitro (M. furfur CBS 1878) | suppression of pigment formation in vivo in humans (pityriasis versicolor) | other results
O=C1NOCC1/N=C/c1ccc(/C=N/C2CONC2=O)cc1 (stereo not drawn) [terizidone] | inhibit pigment formation |  | 
N[C@@H]1CONC1=O [D-cycloserine] | comparable suppression | comparable suppression | healing of lesions (pityriasis versicolor; aqueous solution 0.2 molar, pH 7 (phosphate buffer), twice a day, after three days): complete healing of lesions; side effects / tolerability (pityriasis versicolor; aqueous solution 0.2 molar, pH 7, twice a day): without side effects and is very well tolerated
Cl.NOCC(=O)O.NOCC(=O)O [aminooxyacetate, O-(carboxymethyl)hydroxylamine hemihydrochloride] |  |  | pigment synthesis (tryptophan-dependent pathway) (M. furfur CBS 1878; 4-days old culture, TRP as sole nitrogen source, 20 μl in 4 mm holes, 0.05, 0.1, 0.25, 0.5 molar in water, pH 5, hemihydrochloride): completely inhibited; also recorded: abolished; growth of the fungus (M. furfur CBS 1878; pigment-inducing medium, TRP as sole nitrogen source, 0.05-0.5 molar, pH 5): inhibited; effect of specific inhibition of transamination on complete medium (M. furfur): no effect
N[C@H]1CONC1=O [L-cycloserine] | comparable suppression | comparable suppression | 
NC1CONC1=O (racemic) [DL-cycloserine] | comparable suppression | comparable suppression | 
